Laboratory results from US10336696B2, “Bicarbazole compound, photo-curable composition, cured product thereof, curable composition for plastic lens, and plastic lens” (DIC Corporation, priority 2014, dated 2019).

Assays:
[1] = Solubility in o-phenylphenoxyethyl acrylate; format: physicochemical; parameters: key: A: Soluble; B: Insoluble; settings: for Solubility, 10 mass %: compound concentration 10% by mass; for Solubility, 50 mass %: compound concentration 50% by mass
Protocol: The solubility was evaluated on the basis of whether a compound was soluble or insoluble in o-phenylphenoxyethyl acrylate. The evaluation was performed at two levels at which the compound concentration was 10% by mass and 50% by mass.

[2] = Refractive index of compounds (NMP solutions, extrapolated); format: physicochemical; settings: compound diluted with NMP, three concentrations, Abbe refractometer, 589 nm (D line)
Protocol: The refractive index of each of the compounds was determined as follows. A compound was diluted with N-methylpyrrolidone (NMP) to prepare three samples having different concentrations. Liquid refractive indices of the respective solutions were measured, and the measured data was extrapolated to calculate the refractive index.
Measuring device: Abbe refractometer NRA-2T, manufactured by Atago Co., Ltd.
Measurement wavelength: 589 nm (D line)

SMILES | Solubility, 10 mass % [1] | Solubility, 50 mass % [1] | Liquid refractive index [2]
C=Cn1c2ccccc2c2ccccc21 [Comparative Example 1, 9-vinylcarbazole, reference compound] | A | B | 1.674
c1ccc2c(c1)[nH]c1ccc(-c3ccc4[nH]c5ccccc5c4c3)cc12 [Comparative Example 2, 3,3′-bicarbazole, reference compound] | B | B | 1.765
C=CC(=O)n1c2ccccc2c2cc(-c3cccc4c5ccccc5n(C(=O)C=C)c34)ccc21 [Example 1, 9,9′-diacryloyl-1,3′-bicarbazole] | A | B | 1.723
C=Cn1c2ccccc2c2cc(-c3cccc4c5ccccc5n(C=C)c34)ccc21 [Example 2, 9,9′-divinyl-1,3′-bicarbazole] | A | A | 1.735
C=CC(=O)OCCn1c2ccccc2c2cc(-c3cccc4c5ccccc5n(CCOC(=O)C=C)c34)ccc21 [Example 3, 9,9′-bis(acryloyloxyethyl)-1,3′-bicarbazole] | A | A | 1.664
c1ccc2c(c1)[nH]c1ccc(-c3cccc4c3[nH]c3ccccc34)cc12 [Synthesis Example 1, 1,3′-bicarbazole] | A | B | 1.76
